Experimental data: patent US10265374B2, “Occidiofungin formations and uses thereof” (MISSISSIPPI STATE UNIVERSITY, priority 2014, dated 2019)
Like-named read-outs stand apart in the source and are kept apart here. Starred links: 1 amine or outer side, 2 acyl side, 3 side chain; linkers in the order of their positions; H or OH if unused. Positions of bridges follow the written chain, without caps; N, C: chain ends. Non-standard residues stand in square brackets, D forms with d. Residues, ends and D or L forms follow the SMILES beside them. ξ: configuration not given here. X1 = CCCCCCCCCCCC(OC1OCC(O)C(O)C1O)C(O)C(O)CC(CC(=O)[*:1])N[*:2]; ξTyr(βOH) = NC(C(=O)O)C(O)c1ccc(O)cc1; ξAsn(3ξ-OH) = NC(=O)C(O)C(N)C(=O)O; Dab = NCC[CH](N)C(=O)O

Assays:
[1] = Pharmacokinetics of occidiofungin in DOPC or DOPC:DPPG vesicles; type: in vivo, mice; details: for half-life: female, BALB/c
Experimental: Entrapment of occidiofungin in vesicles was done using 1,2-Dioleoyl-sn-glycero-3-phosphocholine (DOPC) and 1,2-dipalmitoyl-sn-glycero-3-[phospho-rac-(3-lysyl(1-glycerol))] (DPPG) from Avanti polar lipids. Lipid cake formation and subsequent hydration was done according to the manufacturer's recommendation. Briefly, 20 mg/ml of DOPC in chloroform was placed in a glass beaker and dried by vacuum evaporation to remove the organic solvent. The lipid film formed was hydrated using a 1 μg/μl solution of occidiofungin in 1.5% (2-Hydroxypropyl)-β-cyclodextrin (Alfa Aesar), while maintaining the lipid concentration at 20 mg/ml and the solution was sonicated to form the vesicles. Similarly, DPPG was mixed with DOPC at a ratio of 9:1 (DOPC:DPPG) to make a homogenous lipid mixture at a concentration of 20 mg/ml and the same process of drying and hydration was repeated to make vesicles. Following vesicle formation, estimation of the amount of occidiofungin trapped inside each type of vesicle was done. The mixture containing free and vesicle trapped occidiofungin was passed through a gel filtration column containing Sephadex G-10 beads. The void volume (containing only the vesicle trapped occidiofungin) was collected and occidiofungin extracted using methanol (50% final concentration). Liquid chromatography was done on the extracted sample, and a standard and the concentration of occidiofungin in the extracted sample was estimated by a comparison of peak volumes.
Occidiofungin in DOPC and DOPC-DPPG, at a concentration of 2.5 mg/kg, with ˜1.25 mg/kg entrapped in vesicles, was administered to six female BALB/c mice respectively via intravenous administration. […] The mice were weighed prior to the start of the experiment and every 24 hours post injection (hpi).
Blood was drawn at time points 1 hpi, 3 hpi, 5 hpi, 7 hpi, 9 hpi, 12 hpi, 18 hpi, 24 hpi and 48 hpi. 15 μl of blood was drawn from the lateral saphenous vein of each mouse for the first three time points. Blood from three mice were pooled together and added to 5 μl of 6.4% citric acid to prevent coagulation. From the fourth time point, blood was drawn from the tail vein of the mice. Blood samples were spun down at 13000 rpm for 10 minutes to separate the plasma. The plasma and the blood pellet obtained were stored separately at −20° C. until analysis. The plasma samples were thawed and the occidiofungin was extracted using a final concentration of 50% methanol. The protein precipitate was spun down at 13000 rpm for 10 minutes and the supernatant was used for analysis. Liquid chromatography was done using Acclaim 120 C18 columns (Length: 150 mm; I.D: 2.1 mm; 5 μm) to purify the occidiofungin in the sample. The occidiofungin was then subjected to MS/MS. Fragmentation of the occidiofungin (parent mass 1200 and 1216 Da) was carried out and the fragment of 1068 and 1084 Da m/z, which corresponds to the occidiofungin molecule (A and B forms, respectively) without the xylose sugar, was used for quantification of occidiofungin. A calibration curve constructed using standard concentrations of occidiofungin in plasma was used to analyze the samples obtained from the mice for pharmacokinetics (See FIGS. 6A-6B & 7A-7B).

[2] = test system: normal cells with lower metobolism; details: cited from earlier work
[3] = In vitro toxicity screening (CellTiter-Blue cell viability, 48 hours); type: cell-based, human; details: human
From the text: Cancer cell lines, OVCAR8 (Center for Cancer Research (OVAR.8; Sample ID 25)), SW1088 (ATCC-HTB-12), and Toledo (ATCC CRL-2631), and normal human neonatal dermal fibroblasts cell line (ATCC-PCS-201-010) were passaged and prepped as previously described (See References 15-17). OVCAR8, SW1088, and Toledo2631 are ovarian, brain, and B-cell lymphoma cancer cell lines, respectively. This panel of cell lines was chosen based, in part, on their being from very different cancer types in order to discern whether occidiofungin would have a broad spectrum activity towards cancer cell lines of vastly different parental organ/cell types. OVCAR8 cells are widely used in the field of cancer therapeutic research as a panel representative of ovarian cancer in screening experiments for identifying both ovarian-specific and non-specific (i.e., anti-neoplastic activity on multiple cancer cell types) therapeutic agents (See References 28-30). Similarly, SW1088 cells are widely used in the field of cancer therapeutic research as a panel representative of glioma (the most common brain cancer) in screening experiments for identifying both glioma-specific and non-specific therapeutic agents (See References 31-32). Toledo 2631 cells are derived from lymphoma cells, and are used in the field of cancer therapeutic research for identifying lymphoma-specific and non-specific therapeutic agents (See, e.g., Reference 33). […] Cell counts per plate were calculated to be approximately 50,000 cells/mL. A 10× stock solution of occidiofungin was prepared at 65 μM concentration in 10% dimethyl sulfoxide (DMSO). Two-fold serial dilutions on a 96 well plate were set up in triplicate with starting concentration of 6.5 μM and a final concentration of 3 nM. Bortezomib was used as a comparator for toxicity against human fibroblast and was serially diluted two-fold starting at a concentration of 5 μM and ending at 2.5 nM. Bortezomib is used clinically against myeloma and lymphoma cancers in patients refractory against other chemotherapeutics (See References 18, 19). Furthermore, bortezomib has shown efficacy against a variety of solid tumors and cancer cell lines, making this an appropriate comparison molecule in the panel of cell lines chosen (See References 34-35). The plates were then incubated at 37° C. in 5% CO2 for 48 hours. After 48 hours, cell viability was monitored using CellTiter-Blue (Promega) cell viability assay by measuring the fluorescence emission of a redox activated dye (579EX/584EM) using a POLARstar Omega microplate reader (BMG Labtech).

Question: With `CCCCCCCCCCCC(OC1OCC(O)C(O)C1O)C(O)C(O)CC1CC(=O)NC(CO)C(=O)NC(C(O)c2ccc(O)cc2)C(=O)NC(CCN)C(=O)NCC(=O)NC(CC(N)=O)C(=O)NC(CO)C(=O)NC(C(O)C(N)=O)C(=O)N1` (stereo not drawn) [OCFIN-B] (S[ξTyr(βOH)][Dab]GNS[ξAsn(3ξ-OH)]; linker N-C via X1; configuration not given here) as the compound, how does the half-life ([1]; mouse, in vivo, iv, packaged in DOPC:DPPG (90:10) vesicles, 2.5 mg/kg i.v., mice, read-out: t½ (converted)) read?
Answer: Its half-life is 14.8 h.

Question: What about the ke1 ([1]; packaged in DOPC:DPPG (90:10) vesicles, 2.5 mg/kg i.v., mice) of the same compound?
Answer: Its ke1 is 0.0467 h⁻¹.

Question: What does the source list for `CCCCCCCCCCCC(OC1OCC(O)C(O)C1O)C(O)C(O)CC1CC(=O)NC(CO)C(=O)NC(C(O)c2ccc(O)cc2)C(=O)NC(CCN)C(=O)NCC(=O)NC(CC(N)=O)C(=O)NC(CO)C(=O)NC(CC(N)=O)C(=O)N1` (stereo not drawn) [OCFIN-A] (S[ξTyr(βOH)][Dab]GNSN; linker N-C via X1; configuration not given here)?
Answer: half-life ([1]; mouse, in vivo, iv, 2.5 mg/kg): 14.6 h; ke1 ([1]; mouse, in vivo, iv, 2.5 mg/kg): 0.0474 h⁻¹

Question: For `CC(C)C[C@H](NC(=O)[C@H](Cc1ccccc1)NC(=O)c1cnccn1)B(O)O` [Bortezomib, bortezomib, reference compound], which “toxicity in normal cells” value [2] is on record?
Answer: The value was “micromolar range”.

Question: And the CC50 at 48 h [3]?
Answer: Its CC50 at 48 h is 4.09 µM.
